Measured values taken from article PMC10778824, “New Chalcone Derivatives Containing 2,4-Dichlorobenzenesulfonamide Moiety with Anticancer and Antioxidant Properties” (International Journal of Molecular Sciences, 2023).
Values after ≈ are worked out from the molar mass of the structure shown.

Columns and labels:
[1] = test system: gastric adenocarcinoma AGS; assay: MTT assay, AGS cells; type: cell-based, human
Method: (§1) The human gastric adenocarcinoma AGS, cervical cancer HeLa, and acute promyelocytic leukemia HL-60 cells were obtained from the American Type Culture Collection (ATCC, Manassas, VA, USA). Human neonatal fibroblasts were obtained from LGC Standards (Luckenwalde, Germany). The HeLa and AGS lines were cultured in Dulbecco’s modified Eagle’s medium (DMEM) and DMEM/F12 medium, respectively. The HL-60 line was maintained in RPMI-1640 medium. Fibroblasts were cultured in Fibroblast Growth Medium with Supplement Mix. All the media were supplemented with 100 units/mL of penicillin, 100 µg/mL of streptomycin, and 10% (v/v) fetal bovine serum (FBS) (Merck Millipore, Burlington, MA, USA). The cells were incubated at 37 °C and 5% CO2.
(§2) To estimate the cytotoxic effect of the five compounds (4–8), MTT (3-(4,5-dimethylthiazol-2-yl)-2,5-diphenyltetrazolium bromide) assay was used. Oxaliplatin was used as a positive control in this test. All the cell lines were seeded in 96-well plates at a density of 5 × 10^3 cells/well and treated for 24 h with the compounds at concentrations of 0.5–40 µg/mL. Oxaliplatin was tested in the range of 20–400 µg/mL (50–1000 µM). After treatment, the cells were incubated with MTT (0.5 mg/mL; Merck Millipore, Burlington, MA, USA) for 3 h. Then, DMSO was used to dissolve formazan crystals, and the absorbance of the formazan solution was measured with a plate reader (Epoch, BioTek Instruments, Santa Clara, CA, USA). All the results (±standard deviation (SD)) were obtained from six repetitions in at least two independent experiments. The data are expressed as IC50 values (µg/mL).

cervical cancer HeLa = assay: MTT assay, HeLa cells; type: cell-based, human
Method: as §1, §2

[2] = test system: acute promyelocytic leukemia HL-60; assay: MTT assay, HL-60 cells; type: cell-based, human
Method: as §1, §2

[3] = test system: human neonatal fibroblasts; assay: MTT assay, noncancerous fibroblasts; type: cell-based; settings: Homo sapiens, Fibroblast, 24 h treatment
Method: as §1, §2

AGS cells [4] = assay: Microscopic observation of AGS cells; type: cell-based, human; settings: microscopy, 200×; compound 5 at 1, 5, 10 µg/mL; oxaliplatin 20 and 40 µg/mL
Method: These changes were clearly visible when higher concentrations of the compound were used in the study.
Figure 2 The effect of chalcone derivative 5 on AGS cells. The cells were treated with DMSO (0.2%, v/v) (A) and the compound at concentrations of 1 (B), 5 (C), and 10 (D) µg/mL and oxaliplatin at 20 (E) and 40 (F) µg/mL. The images were taken at 200× magnification.

[5] = Annexin V and dead cell assay (flow cytometry); type: cell-based, human; settings: human, AGS cells, 10 µg/mL, read-out: live cells (viability)
Method: (§3) To estimate the viability and induction of apoptosis/necrosis in the population of AGS cells treated with compound 5, the Muse Annexin V and a Dead Cell Assay Kit (Merck Millipore, Burlington, MA, USA) were used. The cells were seeded in 12-well plates (1 × 10^5 cells/well) and incubated with the compound at concentrations of 1, 5, and 10 µg/mL. […] After 24 h, the cells were stained with the kit reagents, namely, annexin V and 7-AAD (7-aminoactinomycin), and analyzed by flow cytometry (Muse Cell Analyzer, Merck Millipore, Burlington, MA, USA). The experiments were performed in three independent repeats.

AGS cells [6] = assay: Annexin V and dead cell assay (flow cytometry); type: cell-based, human; settings: 24 h
Method: as §3

AGS cells [7] = assay: MitoPotential assay (mitochondrial membrane depolarization); type: cell-based, human; settings: 10 µg/mL, 5 h
Method: The AGS cells were seeded in a 12-well plate (1 × 10^5 cells/well) and incubated with compound 5 at concentrations of 1, 5, and 10 µg/mL; oxaliplatin at the concentration of 40 µg/mL; and DMSO (0.2%, v/v). After 5 h of exposure, the cells were stained with the Muse MitoPotential Assay Kit (Merck Millipore, Burlington, MA, USA) and analyzed with the Muse Cell Analyzer (Merck Millipore, Burlington, MA, USA). The percentage of depolarized live and dead cells was estimated in the experiments, which were independently repeated three times.

caspase-8 = assay: Caspase-Glo 8 activity assay in AGS cells; type: cell-based, human; settings: 24 h, relative to DMSO control
Method: (§4) The AGS cells were seeded in a 96-well plate (5 × 10^3 cells/well) and treated with compound 5 at concentrations of 1, 5, 7, and 10 µg/mL for 24 h; oxaliplatin at the concentration of 20 µg/mL; and DMSO (1%, v/v). The cells were then treated with reagents from Caspase-Glo 8 Assay or Caspase-Glo 9 Assay (Promega, Madison, WI, USA) and measured with the luminometer Glomax Multi + Detection System (Promega, Madison, WI, USA). The experiments were performed in two independent repeats in three repetitions.

caspase-9 = assay: Caspase-Glo 9 activity assay in AGS cells; type: cell-based, human; settings: 24 h, relative to DMSO control
Method: as §4

[8] = ABTS radical scavenging assay; settings: concentration of 800 µg/mL
Method: The ABTS radical scavenging assay of chalcone derivatives was performed with ascorbic acid as a standard. Different concentrations of samples, dissolved in DMSO, were mixed with 170 μL of ABTS solution (2 mM ABTS diammonium salt and 3.5 mM potassium persulfate), and water was added to a final volume of 300 μL. ABTS solution with DMSO was used as a control. […] ABTS inhibition was calculated according to the following Formula (3):ABTS Inhibition (%) = [(Acontrol − Asample)/Acontrol] × 100%(3)

[9] = SI = IC50 noncancer cells/IC50 cancer cells, in relation to human neonatal fibroblasts

Q: Which IC50 ([1]; Homo sapiens, AGS, 24 h, MTT, 24 h treatment) does the source give for `Cc1cc(S(=O)(=O)Nc2ccc(C(=O)/C=C/c3ccc(Br)cc3)cc2)c(Cl)cc1Cl` [Compound 5, (E)-N-{4-[3-(4-Bromophenyl)acryloyl]phenyl}-2,4-Dichloro-5-Methylbenzenesulfonamide] here?
A: Its IC50 is less than 1 µg/mL.

Q: And the “selectivity index AGS” value [1, 9]?
A: The value was 28.75.

Q: What about the IC50 (cervical cancer HeLa; Homo sapiens, HeLa, MTT, 24 h treatment) of the same compound?
A: The IC50 was 5.67 ± 0.35 µg/mL (≈ 10.8 µM).

Q: What about the “selectivity index HeLa” value (cervical cancer HeLa; [9]) of the same compound?
A: The value was 4.51.

Q: And the IC50 ([2]; Homo sapiens, HL-60, 24 h, MTT, 24 h treatment)?
A: The IC50 was less than 1.57 µg/mL.

Q: And the “IC50 HL-60” value ([2]; MTT, 24 h treatment)?
A: Its value is 0.93 ± 0.09 µg/mL (≈ 1.77 µM).

Q: What about the “selectivity index HL-60” value [2, 9] of the same compound?
A: Its value is 27.52.

Q: What about the IC50 [3] of the same compound?
A: Its IC50 is 25.6 ± 1.04 µg/mL (≈ 48.7 µM).

Q: And the “morphological changes of AGS cells” value (AGS cells [4])?
A: The value was “cell shrinkage, membrane blebbing, and cell detachment”.

Q: What about the viability at 24 h, 10 µg/mL [5] of the same compound?
A: Its viability at 24 h, 10 µg/mL is 29%.

Q: And the dead cells (AGS cells [6]; 5 µg/mL)?
A: The dead cells was 18.28% ± 1.80%.

Q: And the late apoptotic cells (AGS cells [6]; 5 µg/mL)?
A: The late apoptotic cells was 33.92% ± 3.05%.

Q: What about the dead cells (AGS cells [6]; 10 µg/mL) of the same compound?
A: Its dead cells is 22.16% ± 2.04%.

Q: What about the late apoptotic cells (AGS cells [6]; 10 µg/mL) of the same compound?
A: The late apoptotic cells was 49.90% ± 2.07%.

Q: And the “live cells (viability)” value (AGS cells [6]; 10 µg/mL)?
A: Its value is 26.26% ± 4.03%.

Q: What about the depolarized/dead cells (AGS cells [7]) of the same compound?
A: Its depolarized/dead cells is 32.71% ± 3.50%.

Q: What about the depolarized/live cells (AGS cells [7]) of the same compound?
A: Its depolarized/live cells is 34.20% ± 2.57%.

Q: And the caspase-8 relative activity (caspase-8; 1 µg/mL)?
A: Its caspase-8 relative activity is 1.16 ± 0.15.

Q: And the caspase-8 relative activity (caspase-8; 5 µg/mL)?
A: The caspase-8 relative activity was 3.53 ± 0.33.

Q: And the caspase-8 relative activity (caspase-8; 7 µg/mL)?
A: The caspase-8 relative activity was 3.39 ± 0.28.

Q: And the caspase-8 relative activity (caspase-8; 10 µg/mL)?
A: The caspase-8 relative activity was 2.99 ± 0.20.

Q: What about the caspase-9 relative activity (caspase-9; 1 µg/mL) of the same compound?
A: Its caspase-9 relative activity is 0.85 ± 0.03.

Q: And the caspase-9 relative activity (caspase-9; 5 µg/mL)?
A: The caspase-9 relative activity was 4.54 ± 0.20.

Q: And the caspase-9 relative activity (caspase-9; 7 µg/mL)?
A: The caspase-9 relative activity was 4.50 ± 0.14.

Q: And the caspase-9 relative activity (caspase-9; 10 µg/mL)?
A: The caspase-9 relative activity was 3.81 ± 0.32.

Q: And the “% of ABTS radical inhibition” value [8]?
A: Its value is 16.01 ± 0.69%.
